What was measured:
[1] = target: Delta-type opioid receptor (Homo sapiens, UniProt P41143); format: cell membranes, HEK293, Membrane; conditions: hek293; further: in other assays of this panel Not Active means under 50% inhibition at 10 µM
[2] = target: cGMP-specific 3',5'-cyclic phosphodiesterase (Homo sapiens, UniProt O76074); experiment: DRUGMATRIX: Phosphodiesterase PDE5 enzyme inhibition (substrate: [3H]cGMP + cGMP); format: tissue-based, Platelet; conditions: platelet; Not Active = under 50% inhibition at 10 µM
[3] = target: T1, Polyunsaturated fatty acid lipoxygenase ALOX15 (Oryctolagus cuniculus, UniProt P12530); experiment: biochemical; format: tissue-based, Reticulocytes; conditions: reticulocytes;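 further: inhibition of 15-lipoxygenase enzyme activity measured with linoleic acid as the substrate; in other assays of this panel Not Active means under 50% inhibition at 10 µM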
T1 sequence (P12530 whole entry): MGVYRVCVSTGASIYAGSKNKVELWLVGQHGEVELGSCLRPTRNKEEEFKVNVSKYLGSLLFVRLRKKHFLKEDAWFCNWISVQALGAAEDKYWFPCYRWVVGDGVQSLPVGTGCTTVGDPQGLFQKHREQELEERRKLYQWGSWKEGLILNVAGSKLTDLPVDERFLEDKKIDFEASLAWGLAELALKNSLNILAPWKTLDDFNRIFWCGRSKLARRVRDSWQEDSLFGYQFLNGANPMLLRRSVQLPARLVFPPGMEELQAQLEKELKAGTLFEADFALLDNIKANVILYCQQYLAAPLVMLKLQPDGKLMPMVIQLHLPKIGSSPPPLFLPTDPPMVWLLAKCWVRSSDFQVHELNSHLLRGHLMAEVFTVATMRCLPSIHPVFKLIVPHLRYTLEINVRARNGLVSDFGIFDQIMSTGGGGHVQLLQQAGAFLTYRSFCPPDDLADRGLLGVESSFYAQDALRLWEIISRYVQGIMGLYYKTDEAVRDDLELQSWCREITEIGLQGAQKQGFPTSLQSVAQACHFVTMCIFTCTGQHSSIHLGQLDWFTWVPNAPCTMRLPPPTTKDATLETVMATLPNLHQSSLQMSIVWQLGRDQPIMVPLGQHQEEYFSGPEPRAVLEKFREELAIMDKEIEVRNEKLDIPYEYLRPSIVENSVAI

[4] = target: T2, 3-hydroxy-3-methylglutaryl-coenzyme A reductase (Homo sapiens, UniProt P04035); parameters: species or system Escherichia coli;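 further: enzyme inhibition assay of HMG-CoA reductase using radiolabeled [14C]HMG-CoA as substrate; in other assays of this panel Not Active means under 50% inhibition at 10 µM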
T2 sequence (P04035 whole entry): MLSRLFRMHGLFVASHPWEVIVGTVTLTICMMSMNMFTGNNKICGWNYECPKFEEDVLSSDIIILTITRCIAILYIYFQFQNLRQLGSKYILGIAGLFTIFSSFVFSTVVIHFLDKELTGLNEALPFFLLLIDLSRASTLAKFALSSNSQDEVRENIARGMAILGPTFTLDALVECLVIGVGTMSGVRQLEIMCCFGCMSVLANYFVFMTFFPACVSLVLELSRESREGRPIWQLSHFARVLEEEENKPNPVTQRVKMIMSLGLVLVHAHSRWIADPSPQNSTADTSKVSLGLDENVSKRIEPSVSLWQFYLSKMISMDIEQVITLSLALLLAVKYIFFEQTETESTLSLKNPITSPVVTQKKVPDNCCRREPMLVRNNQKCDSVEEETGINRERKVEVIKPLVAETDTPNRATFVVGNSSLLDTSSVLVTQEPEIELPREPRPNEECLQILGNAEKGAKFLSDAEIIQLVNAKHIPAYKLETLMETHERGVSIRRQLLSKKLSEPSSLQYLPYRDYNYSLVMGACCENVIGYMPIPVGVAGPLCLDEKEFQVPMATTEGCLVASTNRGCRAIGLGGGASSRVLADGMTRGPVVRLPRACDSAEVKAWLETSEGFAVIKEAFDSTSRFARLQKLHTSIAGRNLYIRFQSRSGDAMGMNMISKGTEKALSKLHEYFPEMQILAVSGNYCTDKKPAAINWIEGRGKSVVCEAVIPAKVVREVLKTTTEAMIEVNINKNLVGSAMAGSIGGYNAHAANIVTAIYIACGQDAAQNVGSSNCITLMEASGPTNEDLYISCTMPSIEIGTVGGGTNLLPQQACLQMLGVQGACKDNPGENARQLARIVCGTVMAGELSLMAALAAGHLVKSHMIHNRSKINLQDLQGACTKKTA

Histamine H2 receptor = Histamine H2 receptor (Homo sapiens, UniProt P25021); format: cell membranes, CHO-K1, Membrane; conditions: cho-k1; further: in other assays of this panel Not Active means under 50% inhibition at 10 µM
Chain of Histamine H2 receptor (P25021 whole entry): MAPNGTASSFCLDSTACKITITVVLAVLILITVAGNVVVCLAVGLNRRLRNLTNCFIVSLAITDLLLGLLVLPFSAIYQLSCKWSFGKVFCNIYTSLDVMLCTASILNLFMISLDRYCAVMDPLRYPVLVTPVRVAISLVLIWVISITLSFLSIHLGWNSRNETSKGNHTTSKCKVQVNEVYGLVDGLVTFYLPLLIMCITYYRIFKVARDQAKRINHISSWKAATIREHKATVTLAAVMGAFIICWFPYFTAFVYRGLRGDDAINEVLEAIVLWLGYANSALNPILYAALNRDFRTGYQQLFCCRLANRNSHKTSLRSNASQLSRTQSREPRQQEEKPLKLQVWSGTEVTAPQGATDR

Progesterone receptor = target: T3, Progesterone receptor (Bos taurus, UniProt Q690N0); experiment: DRUGMATRIX: Progesterone radioligand binding (ligand: [3H] R-5020); format: tissue-based, Uterus; conditions: Not Active = under 50% inhibition at 10 µM
T3 sequence (Q690N0 whole entry): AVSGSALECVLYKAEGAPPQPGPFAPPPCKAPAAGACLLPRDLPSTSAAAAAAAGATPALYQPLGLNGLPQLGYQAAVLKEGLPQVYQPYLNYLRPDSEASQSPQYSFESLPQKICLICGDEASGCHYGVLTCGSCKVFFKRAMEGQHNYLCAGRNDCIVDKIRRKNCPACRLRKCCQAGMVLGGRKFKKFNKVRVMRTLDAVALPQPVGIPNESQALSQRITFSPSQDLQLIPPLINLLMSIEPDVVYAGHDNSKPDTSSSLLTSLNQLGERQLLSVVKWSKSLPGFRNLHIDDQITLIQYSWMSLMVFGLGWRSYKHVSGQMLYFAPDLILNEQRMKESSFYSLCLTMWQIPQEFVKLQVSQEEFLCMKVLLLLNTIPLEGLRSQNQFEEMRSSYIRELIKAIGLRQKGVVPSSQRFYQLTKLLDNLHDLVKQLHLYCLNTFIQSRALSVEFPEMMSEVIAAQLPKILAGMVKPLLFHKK

[5] = target: T4, Muscarinic acetylcholine receptor M2 (Homo sapiens, UniProt P08172); format: cell membranes, CHO-K1, Membrane; conditions: cho-k1; further: in other assays of this panel Not Active means under 50% inhibition at 10 µM
T4 sequence (P08172 whole entry): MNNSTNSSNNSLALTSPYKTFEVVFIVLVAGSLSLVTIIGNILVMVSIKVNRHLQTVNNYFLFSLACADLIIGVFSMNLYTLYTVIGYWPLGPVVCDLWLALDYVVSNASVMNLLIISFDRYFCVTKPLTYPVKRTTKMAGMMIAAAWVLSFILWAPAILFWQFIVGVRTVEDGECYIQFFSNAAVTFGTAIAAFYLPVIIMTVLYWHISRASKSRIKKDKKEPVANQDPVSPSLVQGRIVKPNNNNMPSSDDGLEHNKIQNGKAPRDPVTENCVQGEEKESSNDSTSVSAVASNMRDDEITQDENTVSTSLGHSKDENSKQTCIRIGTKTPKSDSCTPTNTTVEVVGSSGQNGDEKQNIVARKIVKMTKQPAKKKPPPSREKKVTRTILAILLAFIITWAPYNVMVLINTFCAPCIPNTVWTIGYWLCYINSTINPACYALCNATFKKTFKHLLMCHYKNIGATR

Chain of Delta-type opioid receptor (P41143 whole entry): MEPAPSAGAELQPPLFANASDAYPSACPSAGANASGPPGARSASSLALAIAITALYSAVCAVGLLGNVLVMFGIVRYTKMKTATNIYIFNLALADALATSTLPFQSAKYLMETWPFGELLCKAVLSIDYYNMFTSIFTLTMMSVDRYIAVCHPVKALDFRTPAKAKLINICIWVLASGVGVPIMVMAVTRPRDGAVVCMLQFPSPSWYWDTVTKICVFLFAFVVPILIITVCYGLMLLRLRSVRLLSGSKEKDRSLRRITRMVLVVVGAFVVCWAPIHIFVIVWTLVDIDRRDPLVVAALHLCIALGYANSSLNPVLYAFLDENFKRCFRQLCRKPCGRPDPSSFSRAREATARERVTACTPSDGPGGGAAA

CC(C)(S)[C@@H](N)C(=O)O [PENICILLAMINE]
Not Active: IC50 [1] | IC50 [2] | IC50 [3] | IC50 [4] | IC50 (Histamine H2 receptor) | IC50 (Progesterone receptor) | IC50 [5]

CC(=O)CCCCn1c(=O)c2c(ncn2C)n(C)c1=O [PENTOXIFYLLINE]
Not Active: IC50 [1] | IC50 [2] | IC50 [3] | IC50 [4] | IC50 (Histamine H2 receptor) | IC50 (Progesterone receptor) | IC50 [5]

O=C1NC(=O)C(c2ccccc2)(c2ccccc2)N1 [PHENYTOIN]
Not Active: IC50 [1] | IC50 [2] | IC50 [3] | IC50 [4] | IC50 (Histamine H2 receptor) | IC50 (Progesterone receptor) | IC50 [5]

CNC(=O)Oc1ccc2c(c1)[C@]1(C)CCN(C)[C@@H]1N2C [PHYSOSTIGMINE]
Not Active: IC50 [1] | IC50 [2] | IC50 [3] | IC50 [4] | IC50 (Histamine H2 receptor) | IC50 (Progesterone receptor) | IC50 [5]

C=C(C)[C@@H]1[C@H]2OC(=O)[C@@H]1[C@]1(O)C[C@H]3O[C@]34C(=O)O[C@H]2[C@]14C [PICROTOXININ]
Not Active: IC50 [1] | IC50 [2] | IC50 [3] | IC50 [4] | IC50 (Histamine H2 receptor) | IC50 (Progesterone receptor) | IC50 [5]

CN1C(C(=O)Nc2ccccn2)=C(O)c2ccccc2S1(=O)=O [PIROXICAM]
Not Active: IC50 [1] | IC50 [2] | IC50 [3] | IC50 [4] | IC50 (Histamine H2 receptor) | IC50 (Progesterone receptor) | IC50 [5]

CCC1(c2ccccc2)C(=O)NCNC1=O [PRIMIDONE]
Not Active: IC50 [1] | IC50 [2] | IC50 [3] | IC50 [4] | IC50 (Histamine H2 receptor) | IC50 (Progesterone receptor) | IC50 [5]

CCCc1cc(=O)[nH]c(=S)[nH]1 [PROPYLTHIOURACIL]
Not Active: IC50 [1] | IC50 [2] | IC50 [3] | IC50 [4] | IC50 (Histamine H2 receptor) | IC50 (Progesterone receptor) | IC50 [5]

COc1ccc(CN(CCN(C)C)c2ccccn2)cc1 [PYRILAMINE]
Not Active: IC50 [1] | IC50 [2] | IC50 [3] | IC50 [4] | IC50 (Histamine H2 receptor) | IC50 (Progesterone receptor) | IC50 [5]

CARBOPLATIN
Not Active: IC50 [1] | Ki [1] | IC50 [2] | Ki [2] | IC50 [3] | Ki [3] | IC50 [4] | Ki [4] | IC50 (Histamine H2 receptor) | Ki (Histamine H2 receptor) | IC50 (Progesterone receptor) | Ki (Progesterone receptor) | IC50 [5] | Ki [5]

CISPLATIN
Not Active: IC50 [1] | Ki [1] | IC50 [2] | Ki [2] | IC50 [3] | Ki [3] | IC50 [4] | Ki [4] | IC50 (Histamine H2 receptor) | Ki (Histamine H2 receptor) | IC50 (Progesterone receptor) | Ki (Progesterone receptor) | IC50 [5] | Ki [5]
